Reference: ChEMBL document CHEMBL1201862, “PubChem BioAssay data set” (2004)
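Growth conditions: 96-well plates. Treatment: test compound, 48 hours, 5 concentrations. Analysis: linear interpolation between bracketing concentrations; unreached endpoints set to highest concentration. GI50: concentration for 50% inhibition of growth.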 Active and inactive are the calls of the source. Rule as the data show it: active = GI50 up to about 1.1 µM and inactive = higher.

Legend:
Assay in all cases: DTP human tumour cell line panel, 48 h
RXF 393 = tested on: RXF 393
MCF7 = tested on: MCF7
UACC-62 = tested on: UACC-62
NCI-H226 = tested on: NCI-H226
HT-29 = tested on: HT-29
SK-MEL-2 = tested on: SK-MEL-2
U-251 = tested on: U-251
HCT-15 = tested on: HCT-15
MDA-MB-435 = tested on: MDA-MB-435
HOP-62 = tested on: HOP-62
786-0 = tested on: 786-0
SN12C = tested on: SN12C
K562 = tested on: K562
CCRF-CEM = tested on: CCRF-CEM
NCI/ADR-RES = tested on: NCI/ADR-RES
SK-OV-3 = tested on: SK-OV-3
HL-60 = tested on: HL-60
SK-MEL-28 = tested on: SK-MEL-28
NCI-H23 = tested on: NCI-H23
UACC-257 = tested on: UACC-257
Hs-578T = tested on: Hs-578T
SF-539 = tested on: SF-539
EKVX = tested on: EKVX
TK-10 = tested on: TK-10
NCI-H522 = tested on: NCI-H522
IGROV-1 = tested on: IGROV-1
SF-295 = tested on: SF-295
ACHN = tested on: ACHN
PC-3 = tested on: PC-3
OVCAR-4 = tested on: OVCAR-4
MDA-MB-231 = tested on: MDA-MB-231
KM12 = tested on: KM12
SNB-75 = tested on: SNB-75
SW-620 = tested on: SW-620
LOX IMVI = tested on: LOX IMVI
HCT-116 = tested on: HCT-116
NCI-H460 = tested on: NCI-H460
Malme-3M = tested on: Malme-3M
OVCAR-5 = tested on: OVCAR-5
SNB-19 = tested on: SNB-19
RPMI-8226 = tested on: RPMI-8226
SR = tested on: SR
DU-145 = tested on: DU-145
T47D = tested on: T47D
A498 = tested on: A498
HOP-92 = tested on: HOP-92
MDA-N = tested on: MDA-N
SF-268 = tested on: SF-268
BT-549 = tested on: BT-549
A549 = tested on: A549
MOLT-4 = tested on: MOLT-4
M14 = tested on: M14
CAKI-1 = tested on: CAKI-1
OVCAR-8 = tested on: OVCAR-8
OVCAR-3 = tested on: OVCAR-3
COLO 205 = tested on: COLO 205
UO-31 = tested on: UO-31

Measured: GI50

CC(C)=NC(C(=O)O)C(C)(C)S (configuration not stated)
inactive: RXF 393 > 100 µM | MCF7 > 100 µM | UACC-62 > 100 µM | NCI-H226 > 100 µM | HT-29 > 100 µM | SK-MEL-2 > 100 µM | U-251 > 100 µM | MDA-MB-435 > 100 µM | HOP-62 > 100 µM | 786-0 > 100 µM | SN12C > 100 µM | K562 > 100 µM | CCRF-CEM > 100 µM | NCI/ADR-RES > 100 µM | SK-OV-3 > 100 µM | HL-60 > 100 µM | SK-MEL-28 > 100 µM | NCI-H23 > 100 µM | UACC-257 > 100 µM | Hs-578T > 100 µM | SF-539 > 100 µM | EKVX > 100 µM | TK-10 > 100 µM | NCI-H522 > 100 µM | IGROV-1 > 100 µM | SF-295 > 100 µM | ACHN > 100 µM | PC-3 > 100 µM | OVCAR-4 > 100 µM | MDA-MB-231 > 100 µM | KM12 > 100 µM | SNB-75 > 100 µM | SW-620 > 100 µM | LOX IMVI > 100 µM | HCT-116 > 100 µM | NCI-H460 > 100 µM | Malme-3M > 100 µM | OVCAR-5 > 100 µM | SNB-19 > 100 µM | RPMI-8226 > 100 µM | SR > 100 µM | DU-145 > 100 µM | T47D > 100 µM | A498 > 100 µM | HOP-92 > 100 µM | MDA-N > 100 µM | SF-268 > 100 µM | BT-549 > 100 µM | A549 > 100 µM | MOLT-4 > 100 µM | M14 > 100 µM | CAKI-1 > 100 µM | OVCAR-8 > 100 µM | OVCAR-3 > 100 µM | COLO 205 > 100 µM | UO-31 > 100 µM
> 100 µM: HCT-15
